# Results as given in US7732424B2, “Purine derivatives and methods of use thereof” (Inotek Pharmaceuticals Corporation, priority 2005, dated 2010).
# Like-named read-outs stand apart in the source and are kept apart here.
# How the values were obtained:
# [1] = biological target: T1, human recombinant A3 adenosine receptor (Homo sapiens, UniProt P0DMS8); assay: Adenosine A3 receptor binding, displacement of [^3H]NECA in transfected HEK cells; settings: displacement of specific [^3H]NECA binding, geometric mean
# T1 construct: expressed in transfected cells
# T1 sequence (P0DMS8 1-318): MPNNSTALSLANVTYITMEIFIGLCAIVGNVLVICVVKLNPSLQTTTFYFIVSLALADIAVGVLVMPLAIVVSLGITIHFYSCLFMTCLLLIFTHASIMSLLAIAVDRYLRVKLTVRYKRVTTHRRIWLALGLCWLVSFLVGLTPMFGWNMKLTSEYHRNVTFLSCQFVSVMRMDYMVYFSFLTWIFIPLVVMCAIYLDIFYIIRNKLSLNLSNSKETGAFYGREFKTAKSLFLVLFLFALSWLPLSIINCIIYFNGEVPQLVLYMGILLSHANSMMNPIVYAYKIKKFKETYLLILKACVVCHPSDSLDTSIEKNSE
# Description: (§1) Membranes for radioligand binding experiments were prepared from fresh or frozen cells as described in Klotz et al., Naunyn-Schmiedeberg's Arch. Pharmacol., 357:1-9 (1998). The cell suspension was then homogenized in ice-cold hypotonic buffer (5 mM Tris/HCl, 2 mM EDTA, pH 7.4) and the resultant homogenate was spun for 10 minutes (4° C.) at 1,000 g. The membranes were then sedimented from the supernatant for 30 minutes at 100,000 g and resuspended in 50 mM Tris/HCl buffer pH 7.4 (for A3 adenosine receptors: 50 mM Tris/HCl, 10 mM MgCl2, 1 mM EDTA, pH 8.25), frozen in liquid nitrogen at a protein concentration of 1-3 mg/mL and stored at −80° C.
# (§2) Nonspecific binding was determined in the presence of 100 μM R-PIA and 1 mM theophylline, respectively. For details see Klotz et al., Naunyn-Schmiedeberg's Arch. Pharmacol., 357:1-9, 1998. All binding data were calculated by non-linear curve fitting using the program SCTFIT (De Lean et al., Mol. Pharm. 1982, 21:5-16).
# [2] = tested on: New Zealand white rabbits; assay: Effect on intraocular pressure (IOP) in rabbits; format: in vivo, rabbit
# Description: The effect of an illustrative Purine Derivative on intraocular pressure (IOP) was examined in New Zealand white rabbits. New Zealand white rabbits undergo a circadian change in intraocular pressure, such that lowest pressure values occur in the early morning and peak pressure values occur in the afternoon. […] Consistency of measurements is indicated by the fact the intraocular pressure at t=−23 hours and t=25 hours is essentially the same (see FIGS. 1-5).
# One rabbit was administered with each each dose level. […] Thus, Compound I′-1 was administered when the level of intraocular pressure was low relative to other timepoints during the day and night.
# [3] = biological target: T2, human recombinant A2A adenosine receptor (Homo sapiens, UniProt P29274); assay: Adenosine A2A receptor binding, displacement of [^3H]NECA in transfected CHO cells
# T2 construct: expressed in transfected cells
# Description: as §1, §2
# [4] = tested on: male Sprague-Dawley rats; assay: Effect on core body temperature in rats; format: in vivo; design: Rectal Temperature: unit not given here; settings: for Behavior / Rectal Temperature / Respiratory Rate / Respiration Rate: rat at 13° C., 15 mg/kg JV then 20 mg/mL at 1 mL/h
# Description: Their rectal temperature, respiratory rate, and behavior were recorded following 5 min, 10 min, 20 min, 30 min, 1 h, 1.5 h, 2 h, 2.5 h, 3 h, 3.5 h, and 4 h.
# [5] = biological target: human recombinant A1 adenosine receptor (Homo sapiens, UniProt P30542); assay: Adenosine A1 receptor binding, displacement of [^3H]CCPA in transfected CHO cells
# Description: as §1, §2
# T2 sequence (P29274 whole entry): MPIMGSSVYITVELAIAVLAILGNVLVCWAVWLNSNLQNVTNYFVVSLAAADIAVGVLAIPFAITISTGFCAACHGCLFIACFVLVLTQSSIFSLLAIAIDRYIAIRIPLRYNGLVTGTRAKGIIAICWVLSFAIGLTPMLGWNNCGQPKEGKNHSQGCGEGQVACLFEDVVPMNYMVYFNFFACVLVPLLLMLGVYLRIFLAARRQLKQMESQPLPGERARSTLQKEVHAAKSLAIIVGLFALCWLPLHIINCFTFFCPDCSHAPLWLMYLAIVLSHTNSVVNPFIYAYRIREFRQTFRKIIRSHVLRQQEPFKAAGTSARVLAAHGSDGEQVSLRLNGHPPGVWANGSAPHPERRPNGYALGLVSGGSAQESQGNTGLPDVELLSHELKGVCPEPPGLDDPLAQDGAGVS
# Chain of human recombinant A1 adenosine receptor (P30542 whole entry): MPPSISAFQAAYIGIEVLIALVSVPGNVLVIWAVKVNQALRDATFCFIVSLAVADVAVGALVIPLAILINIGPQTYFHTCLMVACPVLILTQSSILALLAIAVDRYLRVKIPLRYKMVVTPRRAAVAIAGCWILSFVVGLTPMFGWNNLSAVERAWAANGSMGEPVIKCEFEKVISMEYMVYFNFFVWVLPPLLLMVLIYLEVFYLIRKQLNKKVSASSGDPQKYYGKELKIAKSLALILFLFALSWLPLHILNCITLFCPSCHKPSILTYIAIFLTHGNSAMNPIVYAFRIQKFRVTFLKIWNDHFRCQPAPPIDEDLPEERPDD
smiles,measurement,setting,value
OC[C@H]1O[C@@H](n2cnc3c(NC4(CO)CCCC4)ncnc32)[C@H](O)[C@@H]1O [I′-1],Ki,[1],7.7 µM
same,Effect on intraocular pressure (conclusion),[2]; FIGS. 1-5,reduces an animal's intraocular pressure
same,Time of recovery of intraocular pressure values to normal levels,[2]; administered concentration 0.3 mg/mL (FIG. 1),~6 h
same,Time of recovery of intraocular pressure values to normal levels,[2]; administered concentration 30 mg/mL (FIG. 5),> 7 h
same,Intraocular pressure course after administration,"[2]; one drop to one eye at t=0 hours, FIGS. 1-5",the intraocular pressure did not increase to the normal day values
same,Eye irritation,"[2]; topical ocular, 0.3-30.0 mg/mL",No eye irritation was observed in any animal
same,Ki,[3],28.1 µM
same,Behavior,"[4]; Animal #1, 0 min",normal
same,Rectal Temperature,"[4]; Animal #1, 0 min",38
same,Respiratory Rate,"[4]; Animal #1, 0 min",210 min⁻¹
same,Behavior,"[4]; Animal #1, 5 min",sleep/
same,Rectal Temperature,"[4]; Animal #1, 5 min",38
same,Behavior,"[4]; Animal #1, 10 min",sleep/
same,Rectal Temperature,"[4]; Animal #1, 10 min",37
same,Respiratory Rate,"[4]; Animal #1, 10 min",69 min⁻¹
same,Behavior,"[4]; Animal #1, 20 min",sleep
same,Rectal Temperature,"[4]; Animal #1, 20 min",36
same,Respiratory Rate,"[4]; Animal #1, 20 min",66 min⁻¹
same,Behavior,"[4]; Animal #1, 30 min",sleep
same,Rectal Temperature,"[4]; Animal #1, 30 min",36
same,Respiratory Rate,"[4]; Animal #1, 30 min",75 min⁻¹
same,Behavior,"[4]; Animal #1, 1 h",sleep
same,Rectal Temperature,"[4]; Animal #1, 1 h",32
same,Respiration Rate,"[4]; Animal #1, 1 h",42 min⁻¹
same,Behavior,"[4]; Animal #1, 1.5 h",sleep
same,Rectal Temperature,"[4]; Animal #1, 1.5 h",29
same,Respiration Rate,"[4]; Animal #1, 1.5 h",45 min⁻¹
same,Behavior,"[4]; Animal #1, 2 h",sleep
same,Rectal Temperature,"[4]; Animal #1, 2 h",27
same,Respiration Rate,"[4]; Animal #1, 2 h",54 min⁻¹
same,Behavior,"[4]; Animal #1, 2.5 h",sleep
same,Rectal Temperature,"[4]; Animal #1, 2.5 h",25
same,Respiration Rate,"[4]; Animal #1, 2.5 h",51 min⁻¹
same,Behavior,"[4]; Animal #1, 3 h",sleep
same,Rectal Temperature,"[4]; Animal #1, 3 h",24
same,Respiration Rate,"[4]; Animal #1, 3 h",42 min⁻¹
same,Behavior,"[4]; Animal #1, 3.5 h",sleep
same,Rectal Temperature,"[4]; Animal #1, 3.5 h",23
same,Respiration Rate,"[4]; Animal #1, 3.5 h",42 min⁻¹
same,Behavior,"[4]; Animal #1, 4 h",sleep
same,Rectal Temperature,"[4]; Animal #1, 4 h",21
same,Respiration Rate,"[4]; Animal #1, 4 h",42 min⁻¹
same,Behavior,"[4]; Animal #2, 0 min",normal
same,Rectal Temperature,"[4]; Animal #2, 0 min",39
same,Respiratory Rate,"[4]; Animal #2, 0 min",220 min⁻¹
same,Behavior,"[4]; Animal #2, 5 min",normal
same,Rectal Temperature,"[4]; Animal #2, 5 min",39
same,Respiratory Rate,"[4]; Animal #2, 5 min",99 min⁻¹
same,Behavior,"[4]; Animal #2, 10 min",sleep/
same,Rectal Temperature,"[4]; Animal #2, 10 min",38
same,Respiratory Rate,"[4]; Animal #2, 10 min",84 min⁻¹
same,Behavior,"[4]; Animal #2, 20 min",sleep/
same,Rectal Temperature,"[4]; Animal #2, 20 min",37
same,Respiratory Rate,"[4]; Animal #2, 20 min",57 min⁻¹
same,Behavior,"[4]; Animal #2, 30 min",sleep/
same,Rectal Temperature,"[4]; Animal #2, 30 min",37
same,Respiratory Rate,"[4]; Animal #2, 30 min",51 min⁻¹
same,Behavior,"[4]; Animal #2, 1 h",sleep
same,Rectal Temperature,"[4]; Animal #2, 1 h",33
same,Respiration Rate,"[4]; Animal #2, 1 h",36 min⁻¹
same,Behavior,"[4]; Animal #2, 1.5 h",sleep
same,Rectal Temperature,"[4]; Animal #2, 1.5 h",30
same,Respiration Rate,"[4]; Animal #2, 1.5 h",36 min⁻¹
same,Behavior,"[4]; Animal #2, 2 h",sleep
same,Rectal Temperature,"[4]; Animal #2, 2 h",28
same,Respiration Rate,"[4]; Animal #2, 2 h",36 min⁻¹
same,Behavior,"[4]; Animal #2, 2.5 h",sleep
same,Rectal Temperature,"[4]; Animal #2, 2.5 h",27
same,Respiration Rate,"[4]; Animal #2, 2.5 h",30 min⁻¹
same,Behavior,"[4]; Animal #2, 3 h",sleep
same,Rectal Temperature,"[4]; Animal #2, 3 h",26
same,Respiration Rate,"[4]; Animal #2, 3 h",27 min⁻¹
same,Behavior,"[4]; Animal #2, 3.5 h",sleep
same,Rectal Temperature,"[4]; Animal #2, 3.5 h",25
same,Respiration Rate,"[4]; Animal #2, 3.5 h",24 min⁻¹
same,Behavior,"[4]; Animal #2, 4 h",sleep
same,Rectal Temperature,"[4]; Animal #2, 4 h",25
same,Respiration Rate,"[4]; Animal #2, 4 h",27 min⁻¹
same,Effect on core body temperature (conclusion),"[4]; rats, Tables 3A and 3B",reduces an animal's core body temperature
same,Survival of the animals,"[4]; two rats, 15 mg/kg JV then 20 mg/mL at 1 mL/h for 4 hours",Both animals survived the experiment
same,Ki,[5],6.77 nM
OC[C@H]1O[C@@H](n2cnc3c(NC4(CO)CCCC4)nc(Cl)nc32)[C@H](O)[C@@H]1O [I′-19],Ki,[1],5.96 µM
same,Ki,[3],24 µM
same,Ki,[5],6.47 nM
"OC[C@H]1O[C@@H](n2cnc3c(NC4CCCC4)nc(Cl)nc32)[C@H](O)[C@@H]1O [[^3H]CCPA, 2-chloro-N^6-[^3H]cyclopentyladenosine, reference compound]",Ki,"[3]; displacement of specific [^3H]NECA binding, CHO cells, geometric mean, read-out: Ki(A2A)",2.27 µM
